In US20080170990A1, “Methods for Myocardial Imaging in Patients Having a History of Pulmonary Disease” (CV THERAPEUTICS, INC., priority 2006, published 2008):

Tests used:
[1] = system: COPD patients; details: both, human, in vivo
Excerpt: COPD patients were selected from two phase III randomized, triple-blind, placebo-controlled, multicenter studies (N=2,015) designed to test the strength of agreement for reversible cardiac defects between ADO and REG. There were 35 patients in the ADO group and 69 in the Regadenoson group. Age and gender were similar between ADO (68=11 yrs; 77% male) and Regadenoson group (68±11 yrs; 81% male). Of the 35 patients, 5 suffered (14%) cardiac symptoms in the ADO group vs 3/69 (4%) in the Regadenoson group (p=0.12); 14/35 (40%) in the ADO vs. 20/69 (29%) in the Regadenoson group resorted respiratory symptoms (p=0.28). Angina, occurrence of second degree AV block, acute pulmonary oedema and ronchi were higher in ADO group; nausea, GI discomfort and headache occurred more often in the Regadenoson group.

[2] = system: patients undergoing a clinically indicated coronary catheterization; experiment: Coronary blood flow velocity (CBFv) by Doppler flow wire after IV bolus, open label study (Example 1); type: in vivo, human; details: 18 μg intracoronary (IC) Ado; mean ±SD
Method: The purpose of this open label study was to determine the magnitude and duration of effect of Regadenoson (10-500 μg) on CBFv in humans.
Patients undergoing a clinically indicated coronary catheterization with no more than a 70% stenosis in any coronary artery and no more than a 50% stenosis of the study vessel had CBFv determined by Doppler flow wire. Study subjects were selected after measuring baseline and peak CBFv after an intracoronary (IC) injection of 18 μg of Ado. Twenty-three patients, who were identified as meeting the study criteria of having a peak to baseline CBFv ration of ≧2.5 in response to Adenosine, received a rapid (≦10 sec) peripheral IV bolus of Regadenoson; Doppler signals were stable and interpretable over the time-course of the increase in CBFv in 17 patients.

[3] = system: subjects undergoing stress/rest MPI; experiment: Stress/rest SPECT myocardial perfusion imaging, adenosine vs Regadenoson (Example 6); type: in vivo, human; details: SPECT MPI, 17-segment model; p=n.s.
Method: To determine the ability of Regadenoson to produce coronary hyperemia and accurately detect CAD, 35 subjects (26 men, 9 women; 67±10 years) underwent both A and Regadenoson stress/rest MPI, with 10.0±9.1 days between studies. […] Regadenoson [400 mcg (n=18), 500 mcg (n=17)] was administered as an IV bolus immediately followed by a saline flush, and then a Tc-99m radiopharmaceutical [sestamibi (n=34), tetrofosmin (n=1)]. SPECT images were uniformly processed, intermixed with control studies (normal and fixed-only defects), and interpreted by three observers in a blinded fashion using a 17-segment model. Quantitative analysis was also performed using 4D MSPECT. In addition to three separate readings, a consensus interpretation was performed and then a direct, same-screen comparison of A and REGADENASON images undertaken to determine relative differences, using 5 regions per study.

[4] = system: awake rats; experiment: Sympathoexcitation: heart rate, blood pressure and plasma catecholamines after i.v. bolus (Example 5); type: in vivo, rat; details: in the presence of hexamethonium 10 mg/kg, n=5
Method: CVT (0.31 μg/kg-50 μg/kg) was given as a rapid i.v. bolus to awake rats and heart rate (HR) and blood pressure (BP) were monitored. Regadenoson caused an increase in BP and systolic pressure (SP) at lower doses while at higher doses there was a decrease in BP and SP. […] The increase in HR was evident at the lowest dose of CVT at which there was no appreciable decrease in BP. ZM241385 (30 μg/kg, N=5), an A2A adenosine receptor antagonist, attenuated the decrease in BP (Regadenoson: 14±3%, ZM: 1±1%) and the increase in HR (CVT: 27±3%, ZM: 18±3%) caused by Regadenoson. Pretreatment with metoprolol (MET, 1 mg/kg, n=5), a beta-blocker, attenuated the increase in HR (CVT: 27±3%, MET: 15±2%), but had no effect on hypotension caused by Regadenoson. In the presence of hexamethonium (HEX, 10 mg/kg, n=5), a ganglionic blocker, the tachycardia was prevented (CVT: 27±3%, HEX: −1±2%), but BP was further reduced (CVT: −11±2%, HEX: −49±5%).

| patients with cardiac symptoms [1] | patients with cardiac symptoms, number [1] | patients with respiratory symptoms [1] | patients with respiratory symptoms, number [1] | SMILES | peak to baseline CBFv ratio [2] | summed score following stress, visual analysis [3] | BP change caused by Regadenoson [4] | HR change (tachycardia) caused by Regadenoson [4] |
| --- | --- | --- | --- | --- | --- | --- | --- | --- |
| 14% | 5 | 40% | 14/35 | Nc1ncnc2c1ncn2[C@@H]1O[C@H](CO)[C@@H](O)[C@H]1O [ADO, adenosine, reference compound] | 3.2±0.5 | 133.9±1.5 | – | – |
| – | – | – | – | C[N+](C)(C)CCCCCC[N+](C)(C)C [hexamethonium, reference compound] | – | – | −49±5% | −1±2% |
